Measurements: patent publication US8871772B2, “Therapeutic methods and compounds” (Ampio Pharmaceuticals, Inc., priority 2008, dated 2014)

What was measured:
Assay type in all cases: cell-based
[1] = system: STTG grade 4 astrocytoma cell line; experiment: Proliferation of STTG cancer cells, Promega cell titer assay; settings: 96 hours, negative number = increase
Method: (§1) Assays were performed to determine the effect of Cpd. 5 (synthesis described in Example 1) on proliferation of two cancer cell lines. These two cell lines were STTG grade 4 astrocytoma cell line and AU565 breast cancer cell line. Both cell lines were obtained from American Type Culture Collection, Rockville, Md. (ATCC).
(§2) To perform the assays, a 50 mM stock solution of Cpd. 5 was prepared in DMSO and frozen at −80° C. Aliquots of the stock solution were removed and 100 μM dilutions were made in Iscove's modified Dulbecco's medium (IMDM; obtained from ATCC) supplemented with 10% fetal bovine serum (FBS) and penicillin/streptomycin solution. Controls containing equivalent amounts of DMSO to the 100 μM solution were mixed for comparative purposes. 100 μl of the resulting solutions were then added to 96 well culture plates in triplicate and placed in a 37° C. incubator with 5% CO2 to warm.
(§3) At this point, cells were removed from passage flasks using trypsin and counted using trypan blue to establish cell counts/ml and viability. For all experiments, viability of cells was greater than 95%. Solutions of 4,000 cells/100 μl were prepared in the medium from above and 100 μl of the solutions were added to each well of the plates. The plates were placed back in the incubator and incubated with the compounds for 96 hours.
(§4) Following incubation, cell proliferation was assayed by adding 20 μl Promega cell titer aqueous one reagent to each well. […] The plates were incubated at 37° C. for an additional 4-18 hours to allow the colorimetric assay to develop, and the OD of each well was determined in a microplate reader using a 530 nm filter. The OD of wells containing cell titer reagent in culture medium with no cells was subtracted from the OD of all experimental readings.
(§5) The % decrease of the total cell titer signal was determined using the following formula. […] The p values were calculated versus diluent controls.

[2] = system: AU565 breast cancer cell line; experiment: Proliferation of AU565 cancer cells, Promega cell titer assay; settings: 96 hours, negative number = increase
Method: as §1, §2, §3, §4, §5

[3] = system: U-118 metastatic astrocytoma cell line; experiment: Proliferation of U-118 cancer cells, Promega cell titer assay
Method: Assays were performed to determine the effect of Cpd. 5 on proliferation of an additional cancer cell line. This cell line was the U-118 metastatic astrocytoma cell line. It was obtained from ATCC.
To perform the assays, a 50 mM stock solution of Cpd. 5 was prepared in DMSO and frozen at −80° C. […] Controls containing equivalent amounts of DMSO to the 300 μM solution were mixed for comparative purposes. 100 μl of the resulting solutions were then added to 96 well culture plates in triplicate and placed in a 37° C. incubator with 5% CO2 to warm.
as §3, with “Cells” for “At this point, cells”, “trypsin and ethylenediaminetetracetic acid (EDTA)” for “trypsin”, “above,” for “above”
Following incubation, cell proliferation was assayed by adding 20 μl Promega cell titer aqueous one reagent to each well. Promega cell titer reagent is a solution containing a tetrazolium dye that is reduced by living cells to a formazan dye, and this reduction is proportional to the number of living cells present in the well. The plates were incubated at 37° C. for an additional 4 hours to allow the colorimetric assay to develop, and the OD of each well was determined in a microplate reader using a 530 nm filter. The OD of wells containing cell titer reagent in culture medium with no cells was subtracted from the OD of all experimental readings.
The % decrease of the total cell titer signal was determined using the following formula. ((Diluent OD−Experimental OD)/Diluent OD))×100. Data are presented in Table 5 as mean % decrease of cell titer signal of three separate experiments, plus or minus standard deviation. In the mean % decrease column, a positive number means a decrease in cell titer signal, while a negative number means an increase in cell titer signal. The p values were calculated versus diluent controls.
The above experiment was repeated using the U-118 cells at 3000 cells/well.

SMILES: COC(=O)C(c1ccc(-c2ccccc2)cc1)C1NC(=O)CNC1=O (stereo not drawn) [Cpd. 5, biphenyl-4-yl-(3,6-dioxo-piperazin-2-yl)-acetic acid methyl ester]
- MEAN % DECREASE of cell titer signal ([1]; 50 μM): 78.74%
- MEAN % DECREASE of cell titer signal ([2]; AU565, 50 μM): 13.44%
- MEAN % DECREASE of cell titer signal ([3]; U-118, 3000 cells/well, 25 μM final): −25.28%
- MEAN % DECREASE of cell titer signal ([3]; U-118, 3000 cells/well, 37.5 μM final): −25.28%
- MEAN % DECREASE of cell titer signal ([3]; U-118, 3000 cells/well, 50 μM final): −15.63%
- MEAN % DECREASE of cell titer signal ([3]; U-118, 3000 cells/well, 75 μM final): −3.05%
- MEAN % DECREASE of cell titer signal ([3]; U-118, 3000 cells/well, 100 μM final): 20.51%
- MEAN % DECREASE of cell titer signal ([3]; U-118, 3000 cells/well, 150 μM final): 59.70%
- MEAN % DECREASE of cell titer signal ([3]; U-118, 4,000 cells/well, 25 μM final, 96 hours): −50.62%
- MEAN % DECREASE of cell titer signal ([3]; U-118, 4,000 cells/well, 37.5 μM final, 96 hours): −46.50%
- MEAN % DECREASE of cell titer signal ([3]; U-118, 4,000 cells/well, 50 μM final, 96 hours): −7.82%
- MEAN % DECREASE of cell titer signal ([3]; U-118, 4,000 cells/well, 75 μM final, 96 hours): 4.11%
- MEAN % DECREASE of cell titer signal ([3]; U-118, 4,000 cells/well, 100 μM final, 96 hours): 25.93%
- MEAN % DECREASE of cell titer signal ([3]; U-118, 4,000 cells/well, 150 μM final, 96 hours): 65.84%

SMILES: O=c1cc(N2CCOCC2)oc2c(-c3ccccc3)cccc12 [LY294002, reference compound]
- MEAN % DECREASE of cell titer signal ([1]; 20 μM): −46.72%
- MEAN % DECREASE of cell titer signal ([2]; AU565, 20 μM): 61.95%
- MEAN % DECREASE of cell titer signal ([3]; U-118, 3000 cells/well, 40 μM final): 86.04%
- MEAN % DECREASE of cell titer signal ([3]; U-118, 4,000 cells/well, 20 μM final, 96 hours): 19.75%
